We go through four substances from paper PMC11858715 (Molecules, 2025).

The target in experiment [1] is S2 (YIYRNYPDF), sense peptide surrogate of AtxA neurotoxic site (Vipera ammodytes ammodytes, UniProt P00626). Put plainly: biochemical. Format: binding. Particulars: 100% DMSO; 25 °C; read-out: KD (σ).
Experiment [2] addresses S1 (GMMILG), sense peptide surrogate of AtxA neurotoxic site (Vipera ammodytes ammodytes, UniProt P00626). Put plainly: biochemical. Format: binding. Particulars: 100% DMSO; 25 °C; read-out: KD (σ).

No end group written: not given here.

For the substance “VNISVIGIK [S2A2, Val-Asn-Ile-Ser-Val-Ile-Gly-Ile-Lys]”, the Kd in experiment [1] worked out at 8.9 µM.

In the case of “INISIVGVK [S2A1, Ile-Asn-Ile-Ser-Ile-Val-Gly-Val-Lys]”, in experiment [1], the Kd is 1.1 µM.

Turning to SHHYSP [S1A2, Ser-His-His-Tyr-Ser-Pro], the Kd in experiment [2] stood at 1.4 µM.

On to SHHYEP [S1A1, Ser-His-His-Tyr-Glu-Pro], for which, in experiment [2], the Kd amounted to 4.9 µM.

Usually Kd stands for the concentration at which binding is half-saturated.
